# Experimental data: patent US20070191442A1, “Aqueous Pharmaceutical Formulations of ER-beta Selective Ligands” (priority 2006, published 2007)
# Columns and labels:
# Type in all cases: physicochemical
# [1] = Serial dilution study with phosphate buffered saline as diluent and blood model; precipitate observed for two minutes
# Method: A serial dilution study was also undertaken to assess the risk of Compound 1 precipitating upon injection. Phosphate buffered saline (PBS) was used as the diluent and blood model. Accordingly, 10 mg/mL (at pH 9.2) and 30 mg/mL (at pH 10.5) compositions of Compound 1 were prepared by the method described in Example 1, both having 15% HPBCD. The solutions were then serially diluted with PBS.
# [2] = Water solubility of Compound 1 with increasing pH (FIG. 1)
# Excerpt: FIG. 1 depicts the water solubility of Compound 1 with increasing pH. The aqueous pharmaceutical compositions of the invention include a solubilizer/complexant component, to aid in solubilizing the ERβ selective ligand. […] Accordingly, present compositions include a solubilizer/complexant component to aid in solubilization. Generally, the solubilizer/complexant component consists of one or more solubilizing and/or complexing agents known to be useful in the preparation of pharmaceutical formulations. In some embodiments, the solubilizer/complexant component consists of a single solubilizing and/or complexing agent. In some embodiments, the solubilizer/complexant component includes, but is not limited to, cosolvents such as glycerine, ethanol, propylene glycol, sorbitol and polyethylene glycol, and surfactants such as the polyoxyethylene sorbitan fatty acid esters (e.g., polysorbate 80), polyoxyethylene castor oil derivatives (e.g., cremophor EL, cremophor RH40), vitamin E TPGS (d-alpha-tocopheryl polyethylene glycol), solutol (polyethylene glycol esters of hydroxystearate), polyoxyethylene-polyoxypropylene copolymers, polyoxyethylene fatty alcohol ethers, polyethoxylated fatty acid esters, polyoxyethylene-glycerol fatty esters, polyglycolized glycerides, polyethoxylated cholesterols, polyethoxylated sterols, and polyethoxylated vegetable oils. In some embodiments, the solubilizer/complexant component includes, but is not limited to, cosolvents such as glycerine, ethanol, propylene glycol, and polyethylene glycol, and surfactants such as the polyoxyethylene sorbitan fatty acid esters, polyoxyethylene castor oil derivatives, vitamin E TPGS, and solutol. […] Examples of some preferred solubilizing and/or complexing agents include cyclodextrins (including alpha, beta and gamma cyclodextrins) and substituted cyclodextrins, for example hydroxypropyl beta-cyclodextrin and sulfobutyl ether beta-cyclodextrin, with hydroxypropyl beta-cyclodextrin being preferred. […]
# [3] = Solubility of Compound 1 formulated with HPBCD (FIG. 2, FIG. 3)
# Excerpt: FIG. 2 depicts the water solubility of the unionized form of Compound 1 with increasing concentrations of hydroxypropyl-beta-cyclodextrin (HPBCD). FIG. 3 depicts the water solubility of the ionized form of Compound 1 at pH 9.0 and 10.3 with increasing concentrations of hydroxypropyl-beta-cyclodextrin (HPBCD).
# [4] = Chemical stability of a pharmaceutical composition of Compound 1 (potency, degradation impurities by HPLC); conditions: for Potency (percent of the initial API concentration) / Impurity (MW not given) / Impurity MW 279 / Impurity MW 556 / Impurity MW 574: 15% HPBCD, pH 9.2; for Impurity (MW not given) / Impurity MW 279 / Impurity MW 556 / Impurity MW 574: HPLC
# Method: As used herein, potency refers to the percent of the initial API concentration.
# The potency of each composition was determined, and the concentration of impurities from degradation was measured by HPLC, as shown in Table 4.
compound,measurement,setting,value
"N#Cc1cc(-c2ccc(O)c(F)c2)cc2ccc(O)cc12 [Compound 1, 3-(3-Fluoro-4-hydroxy-phenyl)-7-hydroxy-naphthalene-1-carbonitrile]",Precipitate at 2 min.,"[1]; 10 mg/mL (pH 9.2) composition, 15% HPBCD, diluted with PBS to 0.009766 mg/mL, pH 7.43",none
same,Precipitate at 2 min.,"[1]; 10 mg/mL (pH 9.2) composition, 15% HPBCD, diluted with PBS to 0.019531 mg/mL, pH 7.45",none
same,Precipitate at 2 min.,"[1]; 10 mg/mL (pH 9.2) composition, 15% HPBCD, diluted with PBS to 0.039063 mg/mL, pH 7.47",none
same,Precipitate at 2 min.,"[1]; 10 mg/mL (pH 9.2) composition, 15% HPBCD, diluted with PBS to 0.078125 mg/mL, pH 7.57",none
same,Precipitate at 2 min.,"[1]; 10 mg/mL (pH 9.2) composition, 15% HPBCD, diluted with PBS to 0.15625 mg/mL, pH 7.75",none
same,Precipitate at 2 min.,"[1]; 10 mg/mL (pH 9.2) composition, 15% HPBCD, diluted with PBS to 0.3125 mg/mL, pH 8.01",none
same,Precipitate at 2 min.,"[1]; 10 mg/mL (pH 9.2) composition, 15% HPBCD, diluted with PBS to 0.625 mg/mL, pH 8.36",none
same,Precipitate at 2 min.,"[1]; 10 mg/mL (pH 9.2) composition, 15% HPBCD, diluted with PBS to 1.25 mg/mL, pH 8.65",none
same,Precipitate at 2 min.,"[1]; 10 mg/mL (pH 9.2) composition, 15% HPBCD, diluted with PBS to 2.5 mg/mL, pH 8.83",none
same,Precipitate at 2 min.,"[1]; 10 mg/mL (pH 9.2) composition, 15% HPBCD, diluted with PBS to 5 mg/mL, pH 9.04",none
same,concentration of Compound 1 on dilution relative to water solubility (FIG. 4),"[1]; 10 mg/mL and 30 mg/mL solutions, 15% HPBCD, serial dilution with PBS",maintained above the water solubility for sufficient time for complete dilution in the blood stream
same,tendency to precipitate upon dilution,"[1]; 10 mg/mL solution versus 30 mg/mL solution, both 15% HPBCD, diluted with PBS",lower tendency to precipitate upon dilution
same,Precipitate at 2 min.,"[1]; 30 mg/mL (pH 10.5) composition, 15% HPBCD, diluted with PBS to 0.029297 mg/mL, pH 7.55",yes
same,Precipitate at 2 min.,"[1]; 30 mg/mL (pH 10.5) composition, 15% HPBCD, diluted with PBS to 0.058594 mg/mL, pH 7.68",yes
same,Precipitate at 2 min.,"[1]; 30 mg/mL (pH 10.5) composition, 15% HPBCD, diluted with PBS to 0.117188 mg/mL, pH 8",yes
same,Precipitate at 2 min.,"[1]; 30 mg/mL (pH 10.5) composition, 15% HPBCD, diluted with PBS to 0.234375 mg/mL, pH 8.45",yes
same,Precipitate at 2 min.,"[1]; 30 mg/mL (pH 10.5) composition, 15% HPBCD, diluted with PBS to 0.46875 mg/mL, pH 8.82",none
same,Precipitate at 2 min.,"[1]; 30 mg/mL (pH 10.5) composition, 15% HPBCD, diluted with PBS to 0.9375 mg/mL, pH 9",none
same,Precipitate at 2 min.,"[1]; 30 mg/mL (pH 10.5) composition, 15% HPBCD, diluted with PBS to 1.875 mg/mL, pH 9.32",none
same,Precipitate at 2 min.,"[1]; 30 mg/mL (pH 10.5) composition, 15% HPBCD, diluted with PBS to 3.75 mg/mL, pH 9.6",none
same,Precipitate at 2 min.,"[1]; 30 mg/mL (pH 10.5) composition, 15% HPBCD, diluted with PBS to 7.5 mg/mL, pH 9.9",none
same,Precipitate at 2 min.,"[1]; 30 mg/mL (pH 10.5) composition, 15% HPBCD, diluted with PBS to 15 mg/mL, pH 10.17",none
same,solubility at the pH maxima considered safe for IV administration,[2]; about pH 10,poorly soluble
same,solubility at lower pH,[2]; lower pH,relatively insoluble
same,solubility in water,[2]; water,insoluble in water
same,increase in solubility,"[3]; 15% HPBCD at pH 9, compared with free acid form at pH 6.3-7.6 formulated with 15% HPBCD",10 fold
same,increase in solubility,"[3]; 15% HPBCD at pH 10.3, compared with free acid form at pH 6.3-7.6 formulated with 15% HPBCD",30 fold
same,Potency (percent of the initial API concentration),[4]; stored 1 mo. at 25 °C,100.8
same,Potency (percent of the initial API concentration),[4]; stored 1 mo. at 40 °C,100.4
same,Impurity (MW not given),[4]; stored 1 mo. at 40 °C,0.06
same,Impurity MW 279,[4]; stored 1 mo. at 40 °C,0.07
same,Impurity MW 556,[4]; stored 1 mo. at 40 °C,0.33
same,Impurity MW 574,[4]; stored 1 mo. at 40 °C,0.03
same,Potency (percent of the initial API concentration),[4]; stored 3 mo. at 4 °C,99.9
same,Potency (percent of the initial API concentration),[4]; stored 3 mo. at 25 °C,98.9
same,Impurity (MW not given),[4]; stored 3 mo. at 25 °C,0.02
same,Impurity MW 279,[4]; stored 3 mo. at 25 °C,0.03
same,Impurity MW 556,[4]; stored 3 mo. at 25 °C,0.11
same,Potency (percent of the initial API concentration),[4]; stored 3 mo. at 40 °C,98.1
same,Impurity (MW not given),[4]; stored 3 mo. at 40 °C,0.12
same,Impurity MW 279,[4]; stored 3 mo. at 40 °C,0.16
same,Impurity MW 556,[4]; stored 3 mo. at 40 °C,0.62
same,Impurity MW 574,[4]; stored 3 mo. at 40 °C,0.06
same,Potency (percent of the initial API concentration),[4]; stored 6 mo. at 4 °C,98.0
same,Impurity MW 556,[4]; stored 6 mo. at 4 °C,0.06
same,Potency (percent of the initial API concentration),[4]; stored 6 mo. at 25 °C,97.7
same,Impurity (MW not given),[4]; stored 6 mo. at 25 °C,0.04
same,Impurity MW 279,[4]; stored 6 mo. at 25 °C,0.05
same,Impurity MW 556,[4]; stored 6 mo. at 25 °C,0.36
same,Impurity MW 574,[4]; stored 6 mo. at 25 °C,0.03
same,Potency (percent of the initial API concentration),[4]; stored 6 mo. at 40 °C,93.3
same,Impurity (MW not given),[4]; stored 6 mo. at 40 °C,0.3
same,Impurity MW 279,[4]; stored 6 mo. at 40 °C,0.4
same,Impurity MW 556,[4]; stored 6 mo. at 40 °C,1.57
same,Impurity MW 574,[4]; stored 6 mo. at 40 °C,0.11
same,molecular weight 556 impurity,"[4]; comparable formulation without the HPBCD (5 mg/mL, 50 mM glycine buffer, pH 11), at three days",0.34%
